Measured values as given in patent US11672772B2, “Use of glycyrrhetinic acid, glycyrrhizic acid and related compounds for mitigation and/or treatment of pneumonitis/pneumonia/pulmonary fibrosis induced by virus infection and/or by chemical or biological agents” (priority 2020, dated 2023).

Key:
[1] = test system: Bleomycin (BLM) pneumonitis; assay: Bleomycin-induced pneumonitis in ICR mice (new inhalation method), left and right lung lobes; type: in vivo; conditions: for pathology HE staining of lung: BLM-pneumonitis, GR/GA treatment vs NS; for lung sizes and lung index (lung wet weight/body weight), left and right side: inhaled 110 ul of 5 mg/ml BLM, oral GR 122 mg/kg/day or GA 67 mg/kg/day, three weeks, vs saline (NS)
Method: (§1) The subject invention provides an easy-perform mouse model with inhalation of 110-130 ul of liquid dissolved with various chemicals (e.g., anti-cancer drug or toxic paraquat) deep into whole lung to induce chemicals-pneumonitis. Compared with currently used intratracheal instillation, this new method is more quick (finished within 3 minutes) and non-invasion without surgically exposing the trachea. It delivers agents using a micropipette into the trachea at the back of the throat and allows the mouse to inhale into the lung with operator help for liquid deep-even distribution in the whole lung. This easy operation can quickly set-up for more than one hundred mice with chemicals-pneumonitis, providing enough mice for the screening or validating of various chemical or biological agents for anti-lung inflammation/infection to meet clinical needs.
(§2) A. After anesthesia, a rubber band was attached to the front teeth of the mice, and the mouse body was vertically upright. The tip of the tongue was pulled out with forceps, and 100-130 ul of liquid reagent was dripped into the upper part of the trachea at the back of the throat. The reagent was naturally inhaled into the mouse lung. […] Entire process was about one minute.
(§3) B. The mouse held firmly in the hands of the operator, moved up and down for 3-5 times to let the liquid moving deep into the lung, rotated around for 2-3 circles and repeated for 3 times to let the liquid evenly distributed in the lung. Entire process was about one minute.
Then, the mice were randomly divided into three groups (6 mice/group) and orally given different agents: 1) NS: vehicle of saline; 2) GR: 122 mg/kg/day of GR; 3) GA: 67 mg/kg/day of GA. Three weeks later, mice were sacrificed and the lung lobes of left and right sides were harvested separately.

BLM-pneumonitis = BLM-pneumonitis in C57BL/6 mice; type: in vivo; conditions: for mitigation/treatment effect on the severity of BLM-pneumonitis: 3 week period, compared with Dexamethasone; for neutrophils % / lymphocytes % / number of lymphocytes: C57BL/6 mice with BLM-pneumonitis; for lymphocytes % / number of lymphocytes: vs saline-treated; for body weight / dose as low as which could reduce the severity of BLM-pneumonitis: C57BL/6 mice; for body weight: BLM, oral Dexamethasone 1, GR 70, GA 22 mg/kg/day, 2 weeks; for dose as low as which could reduce the severity of BLM-pneumonitis: oral
Method: as §1, §2, §3
C57BL/6 mice (8 weeks, male) were anesthetized and inhalated 110 ul of 5 mg/ml Bleomycin (BLM) to induce BLM-pneumonitis (new method in FIG. 2). Then, the mice were randomly divided into groups (7 mice/group) and orally given different agents: 1) Normal: as time control without any treatment; 2) NS: treated with saline as vehicle control (all agents in saline); 3) Dexamethasone: 1 mg/kg/day of Dexamethasone; 4) GR: at the indicated three different doses of GR; 5) GA: at the indicated three different doses of GA. Due to the severe BLM-pneumonitis, the inflammatory factors (such as MPO, IL 6 etc.) were released to cause acute reactions: dilation of alveolar capillaries, increased permeability, plasma exudation, blood cells entering the lung interstitium/alveoli, resulting in an increased wet weight of whole lung. The lung index was calculated as: whole lung wet weight/body weight. The higher of lung index, the severer of pneumonitis.
C57BL/6 mice (8 weeks, male) were anesthetized and inhalated 110 ul of 5 mg/ml Bleomycin (BLM) to induce BLM-pneumonitis (new method in FIG. 2). Then, the mice were randomly divided into four groups and orally given different agents: 1) NS: vehicle of saline; 2) Dexamethasone: 1 mg/kg/day of Dexamethasone; 3) GR: 70 mg/kg/day of GR; 4) GA: 22 mg/kg/day of GA. Due to the severe lung inflammation, the body weights of mice were lost during 2 weeks.

[2] = test system: various chemicals-induced pneumonitis (Bleomycin, Cisplatin, 5-Fluorouracil, Mitomycin, Methotrexate, paraquat); assay: Various chemicals-induced pneumonitis in ICR mice; type: in vivo; conditions: for lung index (lung wet weight/body weight) / WBC number in blood: ICR mice, different time points; for lung index (lung wet weight/body weight): various inhaled chemicals, gavage of GR or GA; for WBC number in blood: gavage 122 mg/kg/day of GR or 67 mg/kg/day of GA within one hour; for number of neutrophils: pneumonitis induced by anticancer agents; for NLR (ratio of neutrophils to lymphocytes): various chemicals-induced pneumonitis; for lymphocytes %: various chemicals-induced pneumonitis incl. 5-FU, BLM and Cisplatin
[3] = test system: TGFβ and Collagen I expression in lung tissue; assay: Bleomycin-induced late lung damage, lung tissue q-PCR of pro-fibrosis molecules; type: in vivo, Mice; conditions: 5 weeks after inhalation
Osimertinib-pneumonitis = type: in vivo, human; conditions: GR 300 mg/day orally
Method: A patient with lung cancer was treated with Osimertinib (80 mg/day), targeting EGFR pathway. […] At this time point, GR (300 mg/day) was orally used and the extent of Osimertinib-pneumonitis was reduced after one month use of GR (FIG. 17 C). Six months after using GR, pneumonitis subsided while Osimertinib was continuously used to target EGFR pathway (FIG. 17 D).

H1N1 A/FM/1/47 = assay: H1N1-pneumonia (H1N1-flu model) in mice; type: in vivo, C57BL/6 mice
[4] = test system: IL6 and MPO expression in lung tissue; assay: Bleomycin+Paraquat-induced pneumonitis, lung tissue q-PCR of acute inflammation molecules; type: in vivo; conditions: ICR mice, Bleomycin then paraquat 2 weeks later; sacrificed after 2 weeks
Method: ICR mice were inhalated with 130 ul of 5 mg/ml, and then 2 week later 0.1 mg/ml of paraquat with mitigation using GR or GA. After 2 weeks, mice were sacrificed and the lung tissue were examined with q-PCR for the expression of acute inflammation molecules, such as IL6 and MPO.

H22 liver cancer = assay: Tumor growth in ICR mice bearing H22 liver cancer; type: in vivo; conditions: GA 40 mg/kg
Method: To determine if GR/GA are used for mitigation/treatment of anti-cancer drugs induced pneumonitis has any blocking effect on anticancer, the GA (40 mg/kg) was used in ICR mice bearing with aggressive H22 liver cancer.

H22 tumor = assay: H22 tumor-bearing mice treated with active immunotherapy (H22 vaccine) with GA; type: in vivo
Method: To determine if GA affects the anti-cancer immunotherapy, the H22 tumor-bearing mice were immunized with H22 vaccine, and GA (40 mg/kg) was used for anti-inflammation. The traditional Aspirin (60 mg/kg) was used as drug-control.

[5] = Pharmacokinetics (PK) after oral GR or GA, plasma LC-MS/MS; type: in vivo; conditions: ICR mice, 400 mg/kg of GR or 224 mg/kg of GA (equal mole)
Method: After oral taken, it is converted into GA, an aglycone, fat soluble and easily absorbed through double lipid layer. Therefore, we propose that their pharmacokinetics (PK) should be different. […] 100 μl of plasma was added with 30 μl internal standard solution (100 ng/ml) and then 0.5 ml ethyl acetate. The mixture was vortex mixed for 3 min, centrifuged at 14 000×g for 15 min, and then removed 470 μl of supernatant to dry. After re-dissolved in 100 μl of acetonitrile-water (80[…]20, V/V, mobile phase agent), 20 μl was used for LC-MS/MS analysis.

In the case of `CC1(C)[C@@H](O[C@H]2O[C@H](C(=O)O)[C@@H](O)[C@H](O)[C@H]2O[C@@H]2O[C@H](C(=O)O)[C@@H](O)[C@H](O)[C@H]2O)CC[C@]2(C)[C@H]3C(=O)C=C4[C@@H]5C[C@@](C)(C(=O)O)CC[C@]5(C)CC[C@@]4(C)[C@]3(C)CC[C@@H]12` [GR, glycyrrhizic acid], the “pathology HE staining of lung” value [1] was “less inflitration of inflammation cells and better lung structure”, the “lung sizes and lung index (lung wet weight/body weight), left and right side” value [1] was “significantly reduced” and the “mitigation/treatment effect on the severity of BLM-pneumonitis” value (BLM-pneumonitis) was “better than Dexamethasone”. For the same compound, the neutrophils % (BLM-pneumonitis) was “greatly reduced”, the lymphocytes % (BLM-pneumonitis) was “increased almost to the normal level” and the number of lymphocytes (BLM-pneumonitis) was “increased”. The body weight (BLM-pneumonitis) was “helped mice to maintain their body weight”, the “dose as low as which could reduce the severity of BLM-pneumonitis” value (BLM-pneumonitis) was ≤ 40 mg/kg/day and the “lung index (lung wet weight/body weight)” value [2] was “significantly reduced”. For the same compound, the “WBC number in blood” value [2] was “reduced”, the number of neutrophils [2] was “reduced” and the “NLR (ratio of neutrophils to lymphocytes)” value [2] was “reduce”. For the same compound, the lymphocytes % [2] was “increased”, the “Collagen I expression in lung tissue (q-PCR)” value [3] was “reduced” and the “TGFb expression in lung tissue (q-PCR)” value [3] was “reduced”. For the same compound, the “extent of Osimertinib-pneumonitis” value (Osimertinib-pneumonitis; after one month) was “reduced”, the Osimertinib-pneumonitis (Osimertinib-pneumonitis; six months, Osimertinib continued) was “subsided” and the lymphocytes number (H1N1 A/FM/1/47; H1N1-pneumonia, vs NS) was “increased it in greater degree than Ribavirin”. For the same compound, the neutrophils % (H1N1 A/FM/1/47; H1N1-pneumonia, vs NS) was “reduced them in greater degree than Ribavirin”, the neutrophils number (H1N1 A/FM/1/47; H1N1-pneumonia, vs NS) was “reduced them in greater degree than Ribavirin” and the lung index (H1N1 A/FM/1/47; day 7, 2×LD50 virus, GR 70 mg/kg gavage once a day) was “acted like Ribavirin to reduce the lung index”. The lymphocytes % (H1N1 A/FM/1/47; day 7 of infection) was “slightly increased”, the IFNg level (H1N1 A/FM/1/47; day 12) was “much less than that in NS and Ribavirin group” and the MCP-1 level (H1N1 A/FM/1/47; day 12) was “reduces MCP-1 to a normal level”. The WBC number (H1N1 A/FM/1/47; day 12) was “reduced WBC number greater than Ribavirin”, the lymphocytes % (H1N1 A/FM/1/47; day 12) was “significantly increased” and the “ratio of neutrophils to lymphocytes (NLR)” value (H1N1 A/FM/1/47; day 12) was “reduced”. The spleen index (H1N1 A/FM/1/47; day 12) was “reduced spleen index” and the lung index (H1N1 A/FM/1/47; day 12, 1×LD50 virus) was “still had a reduced lung index”.
In the case of glycyrrhetinic acid [GA], the “pathology HE staining of lung” value [1] was “less inflitration of inflammation cells and better lung structure”, the “lung sizes and lung index (lung wet weight/body weight), left and right side” value [1] was “significantly reduced” and the “mitigation/treatment effect on the severity of BLM-pneumonitis” value (BLM-pneumonitis) was “better than Dexamethasone”. For the same compound, the neutrophils % (BLM-pneumonitis) was “greatly reduced”, the lymphocytes % (BLM-pneumonitis) was “increased almost to the normal level” and the number of lymphocytes (BLM-pneumonitis) was “increased”. The body weight (BLM-pneumonitis) was “helped mice to maintain their body weight”, the “dose as low as which could reduce the severity of BLM-pneumonitis” value (BLM-pneumonitis) was ≤ 22 mg/kg/day and the “lung index (lung wet weight/body weight)” value [2] was “significantly reduced”. The “WBC number in blood” value [2] was “reduced”, the number of neutrophils [2] was “reduced” and the “NLR (ratio of neutrophils to lymphocytes)” value [2] was “reduce”. The lymphocytes % [2] was “increased”, the “IL6 expression in lung tissue (q-PCR)” value [4] was “reduces” and the “MPO expression in lung tissue (q-PCR)” value [4] was “reduces”. The “Collagen I expression in lung tissue (q-PCR)” value [3] was “reduced”, the “TGFb expression in lung tissue (q-PCR)” value [3] was “reduced” and the growth of tumor (H22 liver cancer) was “could reduce the growth of cancer in vivo”. For the same compound, the survival (H22 tumor; 80 day follow-up, tumor-bearing mice treated with H22 vaccine and GA) was “could prolong the survival time of mice”, the “effect of combination use on the anti-tumor effect of H22 vaccine” value (H22 tumor; GA 40 mg/kg with H22 vaccine) was “not affected” and the WBC number (H1N1 A/FM/1/47; day 12) was “reduced WBC number greater than Ribavirin”. The lymphocytes % (H1N1 A/FM/1/47; day 12) was “significantly increased” and the Tmax [5] was 30 min.
